Test results from patent publication US11279733B2, “Peptide antibiotics” (priority 2017, dated 2022).
In brackets after ≈: the same amount, converted by molar mass. Like-named read-outs stand apart in the source and are kept apart here. Positions of bridges follow the written chain, without caps; N, C: chain ends. Non-standard residues stand in square brackets, D forms with d. Residues, ends and D or L forms follow the SMILES beside them. *: point of attachment. Bip = N[C@@H](Cc1ccc(-c2ccccc2)cc1)C(=O)O; Decanoyl(3R-OH) = CCCCCCC[C@@H](O)CC(=O)*; dBip = N[C@H](Cc1ccc(-c2ccccc2)cc1)C(=O)O; dDab = NCC[C@@H](N)C(=O)O; dDap = NC[C@@H](N)C(=O)O; Dab = NCC[C@H](N)C(=O)O; Dap = NC[C@H](N)C(=O)O

Assays:
in vitro = details: human
How it was run: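 HK2 cells were seeded at 2000 per well in DMEM/F12 with 10% FBS and left to attach for 24 h at 37 °C, 5% CO2. They were then exposed for 24 h to 3-fold peptide dilutions starting from 600 μM solutions in quadruplicate. LDH release was read at 450 nm, and CC50 was fitted from dose-response curves.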

[1] = system: K. pneumoniae GN_102 PmxR
How it was run: (§1)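 Mid-log cultures grown in Mueller Hinton broth at 37° C were tested by 2-fold broth microdilution at 5×10^5 CFU/mL final. Compounds were dissolved in water and tested over a final range of 32 to 0.015 μg/mL.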

[2] = system: K. pneumoniae ATCC 700603, MDR
How it was run: as §1

[3] = system: P. aeruginosa GN_043, PmxR
How it was run: as §1

[4] = system: K. pneumoniae ATCC BAA-2146, NDM-1 pos
How it was run: as §1

[5] = system: P. aeruginosa GN_105, PmxR
How it was run: as §1

[6] = system: S. aureus ATCC 25923, MSSA
How it was run: as §1

E. coli ATCC 25922 = system: E. coli ATCC 25922
How it was run: as §1

K. pneumoniae ATCC 13883 = system: K. pneumoniae ATCC 13883
How it was run: as §1

A. baumannii GN_093 PmxR = system: A. baumannii GN_093 PmxR
How it was run: as §1

A. baumannii ATCC 19606 = system: A. baumannii ATCC 19606
How it was run: as §1

[7] = system: K. pneumoniae GN_106, PmxR
How it was run: as §1

P. aeruginosa ATCC 27853 = system: P. aeruginosa ATCC 27853
How it was run: as §1

Compound | CC50 at 24 h (in vitro) | MIC K. pneumoniae GN_102 PmxR ([1]; GN 102 PmxR) | MIC K. pneumoniae ATCC 700603, MDR ([2]; ATCC 700603) | MIC K. pneumoniae ATCC BAA-2146, NDM-1 pos ([4]; ATCC BAA-2146) | MIC P. aeruginosa GN_105, PmxR ([5]; GN 105, PmxR) | MIC S. aureus ATCC 25923, MSSA ([6]; ATCC 25923) | MIC E. coli ATCC 25922 (E. coli ATCC 25922; ATCC 25922) | MIC K. pneumoniae ATCC 13883 (K. pneumoniae ATCC 13883; ATCC 13883) | MIC A. baumannii GN_093 PmxR (A. baumannii GN_093 PmxR; GN 093 PmxR) | MIC A. baumannii ATCC 19606 (A. baumannii ATCC 19606; ATCC 19606) | MIC K. pneumoniae GN_106, PmxR ([7]; GN 106, PmxR) | MIC P. aeruginosa ATCC 27853 (P. aeruginosa ATCC 27853; ATCC 27853) | MIC P. aeruginosa GN_043, PmxR ([3]; P. aeruginosa GN_043, PmxR) | other results
CCCCCCC[C@@H](O)CC(=O)N[C@H](CCN)C(=O)N[C@H]1CCNC(=O)[C@H](Cc2ccccc2)NC(=O)[C@H](CN)NC(=O)[C@H](CCN)NC(=O)[C@H](CC(C)C)NC(=O)[C@@H](Cc2ccccc2)NC(=O)[C@H](CCN)NC1=O [compound 5385, 3(R)OH-nC9CO-D-Dab-cyc[L-Dab-L-Dab-D-Phe-L-Leu-L-Dab-L-Dap-L-Phe]] ({Decanoyl(3R-OH)}-[dDab][Dab][Dab][dF]L[Dab][Dap]F; lactam 2-C) | 41 µM | 8 µg/mL (≈ 7.52 µM) | 8 µg/mL (≈ 7.52 µM) | 4 µg/mL (≈ 3.76 µM) | 2 µg/mL (≈ 1.88 µM) | 8 µg/mL (≈ 7.52 µM) | 4 µg/mL (≈ 3.76 µM) | 4 µg/mL (≈ 3.76 µM) | 16 µg/mL (≈ 15 µM) | 8 µg/mL (≈ 7.52 µM) | 16 µg/mL (≈ 15 µM) | 2 µg/mL (≈ 1.88 µM) |  | MIC P. aeruginosa GN_043, PmxR ([3]; polymyxin-resistant): 2 µg/mL (≈ 1.88 µM)
CCCCCCC[C@@H](O)CC(=O)N[C@H](CCN)C(=O)N[C@H]1CCNC(=O)[C@H]([C@@H](C)O)NC(=O)[C@H](CN)NC(=O)[C@H](CCN)NC(=O)[C@H](CC(C)C)NC(=O)[C@@H](Cc2ccccc2)NC(=O)[C@H](CCN)NC1=O [compound 5386, 3(R)OH-nC9CO-D-Dab-cyc[L-Dab-L-Dab-D-Phe-L-Leu-L-Dab-L-Dap-L-Thr]] ({Decanoyl(3R-OH)}-[dDab][Dab][Dab][dF]L[Dab][Dap]T; lactam 2-C) | 154 µM |  |  |  |  |  |  |  |  |  |  |  | 1 µg/mL (≈ 0.982 µM) | MIC K. pneumoniae GN_102 PmxR ([1]; K. pneumoniae GN_102 PmxR): 32 µg/mL (≈ 31.4 µM); MIC K. pneumoniae ATCC 700603, MDR ([2]; K. pneumoniae ATCC 700603, MDR): 2 µg/mL (≈ 1.96 µM); MIC K. pneumoniae ATCC BAA-2146, NDM-1 pos ([4]; K. pneumoniae ATCC BAA-2146, NDM-1 pos): 4 µg/mL (≈ 3.93 µM); MIC P. aeruginosa GN_105, PmxR ([5]; P. aeruginosa GN_105, PmxR): 4 µg/mL (≈ 3.93 µM); MIC S. aureus ATCC 25923, MSSA ([6]; S. aureus ATCC 25923, MSSA): >32 µg/mL; MIC E. coli ATCC 25922 (E. coli ATCC 25922; E. coli ATCC 25922): 2 µg/mL (≈ 1.96 µM); MIC K. pneumoniae ATCC 13883 (K. pneumoniae ATCC 13883; K. pneumoniae ATCC 13883): 16 µg/mL (≈ 15.7 µM); MIC A. baumannii GN_093 PmxR (A. baumannii GN_093 PmxR; A. baumannii GN_093 PmxR): >32 µg/mL; MIC A. baumannii ATCC 19606 (A. baumannii ATCC 19606; A. baumannii ATCC 19606): >32 µg/mL; MIC K. pneumoniae GN_106, PmxR ([7]; K. pneumoniae GN_106, PmxR): >32 µg/mL; MIC P. aeruginosa ATCC 27853 (P. aeruginosa ATCC 27853; P. aeruginosa ATCC 27853): 4 µg/mL (≈ 3.93 µM)
CCCCCCC[C@@H](O)CC(=O)N[C@H](CCN)C(=O)N[C@H]1CCNC(=O)[C@H]([C@@H](C)O)NC(=O)[C@H](CCN)NC(=O)[C@H](CCN)NC(=O)[C@H](CC(C)C)NC(=O)[C@@H](Cc2ccccc2)NC(=O)[C@H](CCN)NC1=O [compound 5387, 3(R)OH-nC9CO-D-Dab-cyc[L-Dab-L-Dab-D-Phe-L-Leu-L-Dab-L-Dab-L-Thr]] ({Decanoyl(3R-OH)}-[dDab][Dab][Dab][dF]L[Dab][Dab]T; lactam 2-C) | 210 µM | >32 µg/mL | 2 µg/mL (≈ 1.94 µM) | 1 µg/mL (≈ 0.969 µM) | >32 µg/mL | >32 µg/mL | 2 µg/mL (≈ 1.94 µM) | 2 µg/mL (≈ 1.94 µM) | >32 µg/mL | 8 µg/mL (≈ 7.75 µM) | >32 µg/mL | 1 µg/mL (≈ 0.969 µM) |  | MIC P. aeruginosa GN_043, PmxR ([3]; polymyxin-resistant): 2 µg/mL (≈ 1.94 µM)
CCCCCCC[C@@H](O)CC(=O)N[C@H](CCN)C(=O)N[C@H]1CCNC(=O)[C@H]([C@@H](C)O)NC(=O)[C@H](CCNC(=O)[C@@H](N)CCCNC(=N)N)NC(=O)[C@H](CCN)NC(=O)[C@H](CC(C)C)NC(=O)[C@@H](Cc2ccccc2)NC(=O)[C@H](CCN)NC1=O [compound 5603, 3(R)OH-nC9CO-D-Dab-cyc[L-Dab-L-Dab-D-Phe-L-Leu-L-Dab-L-Dab(L-Arg)-L-Thr]] ({Decanoyl(3R-OH)}-[dDab][Dab][Dab][dF]L[Dab][Dab](Arg)T; lactam 2-C) | 103 µM | >32 µg/mL | 16 µg/mL (≈ 13.5 µM) | >32 µg/mL | 32 µg/mL (≈ 26.9 µM) | >32 µg/mL | 32 µg/mL (≈ 26.9 µM) | >32 µg/mL | >32 µg/mL | >32 µg/mL | >32 µg/mL | 8 µg/mL (≈ 6.73 µM) | 32 µg/mL (≈ 26.9 µM) | 
CCCCCCC[C@@H](O)CC(=O)N[C@H](CCN)C(=O)N[C@H]1CCNC(=O)[C@H]([C@@H](C)O)NC(=O)[C@H](CCN)NC(=O)[C@H](CCN)NC(=O)[C@H](Cc2ccc(-c3ccccc3)cc2)NC(=O)[C@@H](Cc2ccccc2)NC(=O)[C@H](CCN)NC1=O [compound 5607, 3(R)OH-nC9CO-D-Dab-cyc[L-Dab-L-Dab-D-Phe-L-Bip-L-Dab-L-Dab-L-Thr]] ({Decanoyl(3R-OH)}-[dDab][Dab][Dab][dF][Bip][Dab][Dab]T; lactam 2-C) | 19 µM | 32 µg/mL (≈ 28 µM) | 4 µg/mL (≈ 3.5 µM) | 4 µg/mL (≈ 3.5 µM) | 2 µg/mL (≈ 1.75 µM) | 4 µg/mL (≈ 3.5 µM) | 8 µg/mL (≈ 7 µM) | 16 µg/mL (≈ 14 µM) | >32 µg/mL | 8 µg/mL (≈ 7 µM) | 32 µg/mL (≈ 28 µM) | 4 µg/mL (≈ 3.5 µM) | 2 µg/mL (≈ 1.75 µM) | 
CCCCCCC[C@@H](O)CC(=O)N[C@H](CCN)C(=O)N[C@H]1CCNC(=O)[C@H]([C@@H](C)O)NC(=O)[C@H](CCN)NC(=O)[C@H](CCN)NC(=O)[C@H](CC(C)C)NC(=O)[C@@H](Cc2ccc(-c3ccccc3)cc2)NC(=O)[C@H](CCN)NC1=O [compound 5608, 3(R)OH-nC9CO-D-Dab-cyc[L-Dab-L-Dab-D-Bip-L-Leu-L-Dab-L-Dab-L-Thr]] ({Decanoyl(3R-OH)}-[dDab][Dab][Dab][dBip]L[Dab][Dab]T; lactam 2-C) | 37 µM | 4 µg/mL (≈ 3.61 µM) | 2 µg/mL (≈ 1.8 µM) | 2 µg/mL (≈ 1.8 µM) | 2 µg/mL (≈ 1.8 µM) | 4 µg/mL (≈ 3.61 µM) | 2 µg/mL (≈ 1.8 µM) | 2 µg/mL (≈ 1.8 µM) | 16 µg/mL (≈ 14.4 µM) | 4 µg/mL (≈ 3.61 µM) | 8 µg/mL (≈ 7.22 µM) | 2 µg/mL (≈ 1.8 µM) | 1 µg/mL (≈ 0.902 µM) | 
CCCCCCC[C@@H](O)CC(=O)N[C@H](Cc1c[nH]c2ccccc12)C(=O)N[C@H]1CCNC(=O)[C@H]([C@@H](C)O)NC(=O)[C@H](CCN)NC(=O)[C@H](CCN)NC(=O)[C@H](CC(C)C)NC(=O)[C@@H](Cc2ccccc2)NC(=O)[C@H](CCN)NC1=O [compound 6394, 3(R)OH-nC9CO-D-Trp-cyc[L-Dab-L-Dab-D-Phe-L-Leu-L-Dab-L-Dab-L-Thr]] ({Decanoyl(3R-OH)}-[dW][Dab][Dab][dF]L[Dab][Dab]T; lactam 2-C) | > 300 µM | >32 µg/mL | >64 µg/mL | >64 µg/mL | >32 µg/mL | >32 µg/mL | >64 µg/mL | >64 µg/mL | >32 µg/mL | >64 µg/mL | >32 µg/mL | 64 µg/mL (≈ 57.2 µM) | >32 µg/mL | 
CCCCCCC[C@@H](O)CC(=O)N[C@H](CN)C(=O)N[C@H]1CCNC(=O)[C@H]([C@@H](C)O)NC(=O)[C@H](CCN)NC(=O)[C@H](CCN)NC(=O)[C@H](CC(C)C)NC(=O)[C@@H](Cc2ccccc2)NC(=O)[C@H](CCN)NC1=O [compound 6395, 3(R)OH-nC9CO-D-Dap-cyc[L-Dab-L-Dab-D-Phe-L-Leu-L-Dab-L-Dab-L-Thr]] ({Decanoyl(3R-OH)}-[dDap][Dab][Dab][dF]L[Dab][Dab]T; lactam 2-C) | > 300 µM | 16 µg/mL (≈ 15.7 µM) | 1 µg/mL (≈ 0.982 µM) | 2 µg/mL (≈ 1.96 µM) | 2 µg/mL (≈ 1.96 µM) | >32 µg/mL | 2 µg/mL (≈ 1.96 µM) | 8 µg/mL (≈ 7.86 µM) | >32 µg/mL | 16 µg/mL (≈ 15.7 µM) | 32 µg/mL (≈ 31.4 µM) | 2 µg/mL (≈ 1.96 µM) | 2 µg/mL (≈ 1.96 µM) | 
